From patent US20240109918A1, “HETEROCYCLIC COMPOUNDS AND USES THEREOF” (Kumquat Biosciences Inc., priority 2022, published 2024)

How the values were obtained:
KRASG12D = molecular target: T1, KRASG12D (Homo sapiens, UniProt P01116, G12D); assay: Bio-Biochem-PPI-HTRF Ras-SOS1 interaction assay (KRAS G12D); type: biochemical; conditions: 5 nM
T1 construct: made in house; host or cells: E. coli BL21 (DE3)
How it was run: (§1)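 GST-tagged K-Ras (wt or G12D) with anti-GST-Eu(K) donor was mixed with His-hSOS1 and anti-6His-XL665 acceptor in HEPES pH 7.4/NaCl/DTT/BSA/Igepal buffer, with compound in duplicate from 10 μM down to 0.01 μM. After about 10 min or longer, HTRF 665/620 nm ratio gave IC50.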

KRASwt = molecular target: T2, KRASwt (Homo sapiens, UniProt P01116); assay: Bio-Biochem-PPI-HTRF Ras-SOS1 interaction assay (KRAS wt); type: biochemical; conditions: 5 nM
T2 construct: made in house; host or cells: E. coli BL21 (DE3)
T2 sequence (P01116 1-188 isoform P01116-2): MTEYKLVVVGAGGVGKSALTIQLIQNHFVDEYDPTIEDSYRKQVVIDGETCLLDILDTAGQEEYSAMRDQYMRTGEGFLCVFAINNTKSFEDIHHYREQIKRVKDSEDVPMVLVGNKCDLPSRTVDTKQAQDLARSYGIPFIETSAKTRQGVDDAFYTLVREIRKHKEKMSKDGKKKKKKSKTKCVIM
How it was run: as §1

T1 sequence (P01116 1-188 isoform P01116-2 G12D): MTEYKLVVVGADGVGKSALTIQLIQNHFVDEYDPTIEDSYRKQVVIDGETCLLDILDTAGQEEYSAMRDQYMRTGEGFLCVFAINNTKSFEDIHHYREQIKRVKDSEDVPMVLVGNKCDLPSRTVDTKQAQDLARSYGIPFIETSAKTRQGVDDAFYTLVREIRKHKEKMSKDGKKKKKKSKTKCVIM

| IC50 (KRASG12D) | IC50 (KRASwt) | Structure (SMILES) |
| --- | --- | --- |
| < 5 µM | < 5 µM | C[C@H](Oc1nc(N2CCCC3(CN(C(=O)C(F)(F)F)C3)C2)c2cc(Cl)c(-c3ccc(F)c4sc(N)c(C#N)c34)c(F)c2n1)[C@@H]1CCCN1C [compound 123, 2-amino-4-(6-chloro-8-fluoro-2-((S)-1-((S)-1-methylpyrrolidin-2-yl)ethoxy)-4-(2-(2,2,2-trifluoroacetyl)-2,6-diazaspiro[3.5]nonan-6-yl)quinazolin-7-yl)-7-fluorobenzo[b]thiophene-3-carbonitrile] |
| < 5 µM | < 5 µM | N#Cc1c(N)sc2c(F)ccc(-c3c(Cl)cc4c(N5CCCCC6(CN(C(=O)c7ccnn7C(F)(F)F)C6)C5)nc(OC[C@@]56CCCN5C[C@H](F)C6)nc4c3F)c12 [compound 323, 2-amino-4-(6-chloro-8-fluoro-2-(((2R,7aS)-2-fluorotetrahydro-1H-pyrrolizin-7a(5H)-yl)methoxy)-4-(2-(1-(trifluoromethyl)-1H-pyrazole-5-carbonyl)-2,6-diazaspiro[3.6]decan-6-yl)quinazolin-7-yl)-7-fluorobenzo[b]thiophene-3-carbonitrile] |
| < 5 µM | < 5 µM | N#Cc1c(N)sc2c(F)ccc(-c3c(Cl)cc4c(N5CCC6(CN(C#N)C6)C5)nc(OC[C@@]56CCCN5C[C@H](F)C6)nc4c3F)c12 [compound 182, 6-(7-(2-amino-3-cyano-7-fluorobenzo[b]thiophen-4-yl)-6-chloro-8-fluoro-2-(((2R,7aS)-2-fluorotetrahydro-1H-pyrrolizin-7a(5H)-yl)methoxy)quinazolin-4-yl)-2,6-diazaspiro[3.4] octane-2-carbonitrile] |
| < 5 µM | < 5 µM | N#Cc1c(N)sc2c(F)ccc(-c3c(Cl)cc4c(N5CCC6(CCN(C(=O)C7CC7(F)F)C6)CC5)nc(OC[C@@]56CCCN5C[C@H](F)C6)nc4c3F)c12 (stereo partly drawn) [compound 349, 2-amino-4-(6-chloro-4-(2-(2,2-difluorocyclopropane-1-carbonyl)-2,8-diazaspiro[4.5]decan-8-yl)-8-fluoro-2-(((2R,7aS)-2-fluorotetrahydro-1H-pyrrolizin-7a(5H)-yl)methoxy)quinazolin-7-yl)-7-fluorobenzo[b]thiophene-3-carbonitrile] |
| ≥ 5 µM | ≥ 5 µM | CN1CCC[C@H]1COc1nc2c(c(N3CCCCC4(CN(C(=O)C5CC5(F)F)C4)C3)n1)CCN(c1cccc3cccc(Cl)c13)C2 (stereo partly drawn) [compound 236, (6-(7-(8-chloronaphthalen-1-yl)-2-(((S)-1-methylpyrrolidin-2-yl)methoxy)-5,6,7,8-tetrahydropyrido[3,4-d]pyrimidin-4-yl)-2,6-diazaspiro[3.6]decan-2-yl)(2,2-difluorocyclopropyl)methanone] |
| < 5 µM | < 5 µM | N#Cc1c(N)sc2c(F)ccc(-c3c(Cl)cc4c(N5CCOC6(CN(C#N)C6)C5)nc(OC[C@@]56CCCN5C[C@H](F)C6)nc4c3F)c12 [compound 190, 8-(7-(2-amino-3-cyano-7-fluorobenzo[b]thiophen-4-yl)-6-chloro-8-fluoro-2-(((2R,7aS)-2-fluorotetrahydro-1H-pyrrolizin-7a(5H)-yl)methoxy)quinazolin-4-yl)-5-oxa-2,8-diazaspiro[3.5]nonane-2-carbonitrile] |
| < 5 µM | < 5 µM | N#Cc1c(N)sc2c(F)ccc(-c3c(Cl)cc4c(N5CCCCC6(CN(C(=O)N7CC(F)(F)C7)C6)C5)nc(OC[C@@]56CCCN5C[C@H](F)C6)nc4c3F)c12 [compound 298, 2-amino-4-(6-chloro-4-(2-(3,3-difluoroazetidine-1-carbonyl)-2,6-diazaspiro[3.6]decan-6-yl)-8-fluoro-2-(((2R,7aS)-2-fluorotetrahydro-1H-pyrrolizin-7a(5H)-yl)methoxy)quinazolin-7-yl)-7-fluorobenzo[b]thiophene-3-carbonitrile] |
| < 5 µM | < 5 µM | N#Cc1c(N)sc2c(F)ccc(-c3c(Cl)cc4c(N5CCCCC6(CN(C(=O)[C@H]7CCOC7)C6)C5)nc(OC[C@@]56CCCN5C[C@H](F)C6)nc4c3F)c12 [compound 319, 2-amino-4-(6-chloro-8-fluoro-2-(((2R,7aS)-2-fluorotetrahydro-1H-pyrrolizin-7a(5H)-yl)methoxy)-4-(2-((S)-tetrahydrofuran-3-carbonyl)-2,6-diazaspiro[3.6]decan-6-yl)quinazolin-7-yl)-7-fluorobenzo[b]thiophene-3-carbonitrile] |
| < 5 µM | < 5 µM | CC1(C)CN(c2nc(OC[C@@]34CCCN3C[C@H](F)C4)nc3c(F)c(-c4ccc(F)c5sc(N)nc45)c(Cl)cc23)CC2(CNC2)O1 [compound 166, 4-(6-chloro-4-(6,6-dimethyl-5-oxa-2,8-diazaspiro[3.5]nonan-8-yl)-8-fluoro-2-(((2R,7aS)-2-fluorotetrahydro-1H-pyrrolizin-7a(5H)-yl)methoxy)quinazolin-7-yl)-7-fluorobenzo[d]thiazol-2-amine] |
| < 5 µM | < 5 µM | COc1cc(C(=O)N2CC3(CCCCN(c4nc(OC[C@@]56CCCN5C[C@H](F)C6)nc5c(F)c(-c6ccc(F)c7sc(N)c(C#N)c67)c(Cl)cc45)C3)C2)n(C)n1 [compound 258, 2-amino-4-(6-chloro-8-fluoro-2-(((2R,7aS)-2-fluorotetrahydro-1H-pyrrolizin-7a(5H)-yl)methoxy)-4-(2-(3-methoxy-1-methyl-1H-pyrazole-5-carbonyl)-2,6-diazaspiro[3.6]decan-6-yl)quinazolin-7-yl)-7-fluorobenzo[b]thiophene-3-carbonitrile] |
| < 5 µM | < 5 µM | N#Cc1c(N)sc2c(F)ccc(-c3c(Cl)cc4c(N5CCCCC6(CN(C(=O)C78CC(C#N)(C7)C8)C6)C5)nc(OC[C@@]56CCCN5C[C@H](F)C6)nc4c3F)c12 [compound 279, 2-amino-4-(6-chloro-4-(2-(3-cyanobicyclo[1.1.1]pentane-1-carbonyl)-2,6-diazaspiro[3.6]decan-6-yl)-8-fluoro-2-(((2R,7aS)-2-fluorotetrahydro-1H-pyrrolizin-7a(5H)-yl)methoxy)quinazolin-7-yl)-7-fluorobenzo[b]thiophene-3-carbonitrile] |
| ≥ 5 µM | ≥ 5 µM | Cc1ccnc(C(C)C)c1-n1c(=O)nc(N2CCOC3(CNC3)C2)c2cc(F)c(-c3c(O)cccc3F)nc21 [compound 112, 6-fluoro-7-(2-fluoro-6-hydroxyphenyl)-1-(2-isopropyl-4-methylpyridin-3-yl)-4-(5-oxa-2,8-diazaspiro[3.5]nonan-8-yl)pyrido[2,3-d]pyrimidin-2(1H)-one] |
| < 5 µM | < 5 µM | N#Cc1c(N)sc2c(F)ccc(-c3c(Cl)cc4c(N5CC(F)(F)CCC6(CN(C(=O)[C@@H]7CC7(F)F)C6)C5)nc(OC[C@@]56CCCN5C[C@H](F)C6)nc4c3F)c12 [compound 232, 2-amino-4-(6-chloro-4-(2-((S)-2,2-difluorocyclopropane-1-carbonyl)-8,8-difluoro-2,6-diazaspiro[3.6]decan-6-yl)-8-fluoro-2-(((2R,7aS)-2-fluorotetrahydro-1H-pyrrolizin-7a(5H)-yl)methoxy)quinazolin-7-yl)-7-fluorobenzo[b]thiophene-3-carbonitrile] |
| < 5 µM | < 5 µM | C#Cc1c(F)ccc2cc(O)cc(-c3ncc4c(N5CCCC6(CN(C(=O)[C@@H]7C[C@H]7C#N)C6)C5)nc(O[C@@H](C)[C@@H]5CCCN5C)nc4c3F)c12 [compound 113, (1R,2R)-2-(6-(7-(8-ethynyl-7-fluoro-3-hydroxynaphthalen-1-yl)-8-fluoro-2-((S)-1-((S)-1-methylpyrrolidin-2-yl)ethoxy)pyrido[4,3-d]pyrimidin-4-yl)-2,6-diazaspiro[3.5]nonane-2-carbonyl)cyclopropane-1-carbonitrile] |
| < 5 µM | < 5 µM | N#Cc1c(N)sc2c(F)ccc(-c3c(Cl)cc4c(N5CCCCC6(CN(C(=O)C78CC(C(F)(F)F)(C7)C8)C6)C5)nc(OC[C@@]56CCCN5C[C@H](F)C6)nc4c3F)c12 [compound 237, 2-amino-4-(6-chloro-8-fluoro-2-(((2R,7aS)-2-fluorotetrahydro-1H-pyrrolizin-7a(5H)-yl)methoxy)-4-(2-(3-(trifluoromethyl)bicyclo[1.1.1]pentane-1-carbonyl)-2,6-diazaspiro[3.6]decan-6-yl)quinazolin-7-yl)-7-fluorobenzo[b]thiophene-3-carbonitrile] |
| < 5 µM | < 5 µM | CCN(C(=O)N1CC2(C1)CN(c1nc(OC[C@@]34CCCN3C[C@H](F)C4)nc3c(F)c(-c4ccc(F)c5sc(N)c(C#N)c45)c(Cl)cc13)CC(F)(F)O2)C(C)C [compound 153, 8-(7-(2-amino-3-cyano-7-fluorobenzo[b]thiophen-4-yl)-6-chloro-8-fluoro-2-(((2R,7aS)-2-fluorotetrahydro-1H-pyrrolizin-7a(5H)-yl)methoxy)quinazolin-4-yl)-N-ethyl-6,6-difluoro-N-isopropyl-5-oxa-2,8-diazaspiro[3.5]nonane-2-carboxamide] |
| ≥ 5 µM | ≥ 5 µM | C#Cc1c(F)ccc2cc(O)cc(-c3nc4c(cc3F)c(N3CCOC5(CNC5)C3)nc(=O)n4-c3c(C)ccnc3C(C)C)c12 [compound 170, 7-(8-ethynyl-7-fluoro-3-hydroxynaphthalen-1-yl)-6-fluoro-1-(2-isopropyl-4-methylpyridin-3-yl)-4-(5-oxa-2,8-diazaspiro[3.5]nonan-8-yl)pyrido[2,3-d]pyrimidin-2(1H)-one] |
| < 5 µM | < 5 µM | N#Cc1c(N)sc2c(F)ccc(-c3c(Cl)cc4c(N5CCCCC6(CN(C(=O)C7(F)CC7)C6)C5)nc(OC[C@@]56CCCN5C[C@H](F)C6)nc4c3F)c12 [compound 253, 2-amino-4-(6-chloro-8-fluoro-4-(2-(1-fluorocyclopropane-1-carbonyl)-2,6-diazaspiro[3.6]decan-6-yl)-2-(((2R,7aS)-2-fluorotetrahydro-1H-pyrrolizin-7a(5H)-yl)methoxy)quinazolin-7-yl)-7-fluorobenzo[b]thiophene-3-carbonitrile] |
